Source: patent US20260049071A1, “PROTEIN TYROSINE KINASE INHIBITOR AND MEDICAL USE THEREOF” (BEYANG THERAPEUTICS CO., LTD., priority 2022, published 2026)
In brackets after ≈: the same amount, converted by molar mass. Like-named read-outs stand apart in the source and are kept apart here.

Tests used:
[1] = Compound distribution in plasma and ocular tissues after single ocular dose in Dutch belted rabbits; type: in vivo; conditions: eye drops 1 mg/mL (0.05 mg/eye), 0.5 h, 4 h or 8 h post-dose
From the text: Age-related macular degeneration and diabetic retinopathy are associated with neovascularization in the posterior eye segment Due to the corneal and conjunctival barrier, one of the main problems with topical eye drops used to treat the posterior eye segment disorders is the low-efficiency delivery of the drug to the posterior eye segment. Therefore, it is important to measure the distribution of the compound in an ophthalmic formulation in several major ocular tissues. […] Dutch belted rabbits were used in this experiment. […]
In this experiment, male Dutch belted rabbits weighed 1.5-2.5 kg were purchased from Pizhou Dongfang Breeding Co., Ltd. Any operation on the laboratory animals in this experiment was in compliance with the relevant SOP requirements of the experimental operation of 3D BioOptima, Suzhou, China, and had been approved by the Institutional Animal Care and Use Committee (IACUC) of 3D BioOptima. […] The prepared dose formulations were freshly prepared on the day of administration, samples were retained and the actual concentration of the dose formulation was determined.
On the day of the experiment, animals were administrated at 1 mg/mL (0.05 mg/eye, 50 μL/eye). […] The concentration of each analyte in the rabbit ocular tissues and plasma obtained in this experiment was determined by LC-MS/MS. […]

[2] = statement in the summary; cited from earlier work
KDR (VEGFR2) = KDR (VEGFR2) (Homo sapiens (Human), UniProt P35968); test: Kinase inhibition, Mobility Shift Assay (VEGFR2); type: biochemical
How it was run: (§1)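 Mobility shift assay: each kinase preincubated 10 min at room temperature with compound, then reacted with FAM-labeled peptide, MgCl2 and ATP at 28° C. for varying times. Substrate-to-product conversion read on Caliper; % inhibition normalised to no-kinase and DMSO controls, and IC50 fitted.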

EGFR = EGFR (Homo sapiens (Human), UniProt P00533); test: Kinase inhibition, Mobility Shift Assay (EGFR); type: biochemical
How it was run: as §1

FLT1 (VEGFR1) = FLT1 (VEGFR1) (Homo sapiens (Human), UniProt P17948); test: Kinase inhibition, Mobility Shift Assay (VEGFR1); type: biochemical
How it was run: as §1

FLT4 (VEGFR3) = FLT4 (VEGFR3) (Homo sapiens (Human), UniProt P35916); test: Kinase inhibition, Mobility Shift Assay (VEGFR3); type: biochemical
How it was run: as §1

[3] = target: VEGFR2 autophosphorylation (pVEGFR2) in HUVEC cells (Homo sapiens (Human), UniProt P35968); test: Inhibition of VEGF-induced VEGFR2 autophosphorylation in HUVEC cells (ELISA); type: cell-based; conditions: 50 ng/ml human VEGF, compound 1 h
From the text: Vascular endothelial growth factor receptor 2 (VEGFR2) is a primary receptor for VEGF-induced endothelial cell signaling. After ligand binding, VEGFR2 is autophosphorylated and activated. The main function of signaling from VEGFR2 is to induce vascularization during development and after tissue injury, and to bypass blocked blood vessels. Pathologically, VEGF and VEGFR2 are involved in tumor angiogenesis and vascular leakage. They are considered to be main participants in many different cancers and ocular diseases that accompany pathological neovascularization. This assay measured the ability of the compounds to inhibit VEGF-induced VEGFR2 autophosphorylation (pVEGFR2) in HUVEC cells by using ELISA.
Culture cells in a cell culture flask to reach a fusion degree of 60%-80% before cell inoculation. Dilute the cell suspension to […] with a pre-warmed complete medium. Add 80 μL of the cell suspension to all wells of a 96-well cell plate (Corning-3599); and incubate the plate overnight at 37° C. in the presence of 5% CO2. Dissolve the compound powder to 10 mM with DMSO and store it in a nitrogen cabinet. Compound dilution plate: Add a reference compound Ponatinib or a compound to be tested to a 96 V-well plate (Axygen-WIpp 2280) at concentrations achieved as follows: performing 3-fold gradient dilution starting from 5 mM (5 μL of 10 mM compound solution plus 5 μL of DMSO) for a total of 8 concentration points. […] Transfer 20 μL of the diluted compound from the intermediate plate to a cell plate. Then, incubate the cell plate for 1 h at 37° C. in the presence of 5% CO2. After the compound was treated for 1 h, add 25 μL of 250 ng/ml human VEGF at a final concentration of 50 ng/ml to a 96-well plate; and incubate the plate for 5 min at 37° C. in the presence of 5% CO2, centrifuge the plate for 10 min at 3,000 rpm, remove the medium and wash the cells once with 300 μL of pre-chilled DPBS per well. Then, centrifuge the plate for 10 min at 4,000 rpm, remove DPBS, and add 110 μL of pre-chilled 1× cell lysis buffer per well to the 96-well plate. Shake the plate for 40 min at 4° C. Then, freeze the plate in a refrigerator at −80° C. On the next day, remove the plate from the refrigerator at −80° C., thaw the plate, centrifuge the plate for 10 min at 3500 rpm, and add 100 μL of the supernatant per well to an ELISA plate. Seal the plate and incubate it for 2 h at 37° C. Wash the wells 4 times with 1× wash buffer. Add 100 μL of recombinant detection antibody per well. Seal the plate, incubate the plate for 1 h at 37° C., and repeat the step of plate washing. Add 100 μL of secondary antibody per well. Seal the plate, incubate the plate for 30 min at 37° C., and repeat the step of plate washing. Add 100 μL of TMB (protected from light) per well. Seal the plate, incubate the plate for 30 min at 37° C., and add 100 μL of the stop solution per well. Gently shake for 30 sec, measure the absorbance with a SpectraMax® 340 PC 384 Absorbance Microplate Reader within 30 min, and read an optical density value at 450 nm. Conduct data analysis using XL Fit software:
Conduct curve fitting using the 4 Parameter Logistic Model or Sigmoidal Dose-Response Model:
X indicating the log value of compound concentration, Y indicating the inhibition ratio (% inhibition), Top indicating the readout of the negative control wells, and bottom indicating the readout of the positive control well.

melanin = test: Binding capacity of compounds to melanin; type: in vitro ADME; conditions: Sepia officinalis (cuttlefish), melanin suspension (1 mg/mL); 1 mg/mL melanin suspension in PBS pH 7.4, 2 μM compound, 2 h at 37° C.; read-out: Fu % (percentage of free drug, not bound to melanin)
How it was run: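 Compound at 2 μM final incubated with 1 mg/mL Sepia melanin suspension in PBS pH 7.4 for 2 h at 37 °C with shaking; blank control in PBS with 0.1% BSA. Supernatant concentrations measured by LC-MS/MS; bound fraction from melanin versus control samples, free fraction as 100 − Fb.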

[4] = Thermodynamic solubility assay; conditions: aqueous buffer, pH 2, aqueous buffer, thermodynamic from solid
Method: (§2) After sonication for 10 min, fix them on a shaker and shaking for 8 h at room temperature. After shaking, sonicate for 10 min and centrifuge for 15 min at 13,000 rpm. Pipette 0.1 mL of supernatant into a new tube, shake and rinse it with 5 mL, and discard the liquid. Transfer 0.5 mL of the supernatant again to a new tube, centrifuge it for 15 min at 13,000 rpm, then collect the supernatant (if necessary, dilute with water) and analyze it by LC-MS.
(§3) The sample concentrations at 3-5 points are subjected to fitting and reticle for quantification.

[5] = pH 2
Method: as §2, §3

FLT4 (VEGFR3), sequence (P35916 25-1363): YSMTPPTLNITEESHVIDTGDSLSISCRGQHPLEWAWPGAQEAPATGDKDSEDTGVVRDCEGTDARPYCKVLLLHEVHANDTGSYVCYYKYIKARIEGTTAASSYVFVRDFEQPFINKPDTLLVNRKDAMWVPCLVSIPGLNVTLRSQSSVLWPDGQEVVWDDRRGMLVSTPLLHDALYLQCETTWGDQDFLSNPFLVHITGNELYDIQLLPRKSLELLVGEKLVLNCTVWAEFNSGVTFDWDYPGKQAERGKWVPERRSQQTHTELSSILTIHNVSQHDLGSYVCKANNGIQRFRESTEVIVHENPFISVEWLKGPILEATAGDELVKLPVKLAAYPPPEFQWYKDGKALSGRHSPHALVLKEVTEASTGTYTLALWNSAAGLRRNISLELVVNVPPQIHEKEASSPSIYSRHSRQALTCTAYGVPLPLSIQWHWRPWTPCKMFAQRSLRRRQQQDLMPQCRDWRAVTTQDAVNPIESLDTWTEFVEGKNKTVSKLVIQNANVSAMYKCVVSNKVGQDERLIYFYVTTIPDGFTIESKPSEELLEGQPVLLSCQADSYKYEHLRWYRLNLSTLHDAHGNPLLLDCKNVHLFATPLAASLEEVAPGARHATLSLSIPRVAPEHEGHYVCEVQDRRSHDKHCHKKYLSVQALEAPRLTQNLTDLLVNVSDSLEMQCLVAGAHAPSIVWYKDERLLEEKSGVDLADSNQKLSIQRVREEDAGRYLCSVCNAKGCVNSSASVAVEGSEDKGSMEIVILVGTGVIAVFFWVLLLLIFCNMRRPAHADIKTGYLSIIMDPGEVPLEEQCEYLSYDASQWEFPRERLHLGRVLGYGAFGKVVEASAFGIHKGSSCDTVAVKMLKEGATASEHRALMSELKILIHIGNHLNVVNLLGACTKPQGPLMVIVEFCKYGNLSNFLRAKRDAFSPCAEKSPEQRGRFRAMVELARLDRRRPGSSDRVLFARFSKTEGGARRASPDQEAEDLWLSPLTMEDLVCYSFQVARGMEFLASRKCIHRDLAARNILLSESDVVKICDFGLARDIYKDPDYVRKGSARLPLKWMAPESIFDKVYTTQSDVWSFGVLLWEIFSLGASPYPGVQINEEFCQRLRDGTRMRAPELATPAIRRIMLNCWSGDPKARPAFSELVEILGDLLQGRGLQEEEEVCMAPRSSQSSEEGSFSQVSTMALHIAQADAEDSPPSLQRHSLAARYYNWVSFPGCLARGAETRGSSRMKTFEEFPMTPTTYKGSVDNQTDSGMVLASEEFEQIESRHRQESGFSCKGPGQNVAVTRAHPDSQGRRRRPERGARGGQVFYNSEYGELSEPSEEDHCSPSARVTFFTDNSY
FLT1 (VEGFR1), sequence (P17948 27-1338): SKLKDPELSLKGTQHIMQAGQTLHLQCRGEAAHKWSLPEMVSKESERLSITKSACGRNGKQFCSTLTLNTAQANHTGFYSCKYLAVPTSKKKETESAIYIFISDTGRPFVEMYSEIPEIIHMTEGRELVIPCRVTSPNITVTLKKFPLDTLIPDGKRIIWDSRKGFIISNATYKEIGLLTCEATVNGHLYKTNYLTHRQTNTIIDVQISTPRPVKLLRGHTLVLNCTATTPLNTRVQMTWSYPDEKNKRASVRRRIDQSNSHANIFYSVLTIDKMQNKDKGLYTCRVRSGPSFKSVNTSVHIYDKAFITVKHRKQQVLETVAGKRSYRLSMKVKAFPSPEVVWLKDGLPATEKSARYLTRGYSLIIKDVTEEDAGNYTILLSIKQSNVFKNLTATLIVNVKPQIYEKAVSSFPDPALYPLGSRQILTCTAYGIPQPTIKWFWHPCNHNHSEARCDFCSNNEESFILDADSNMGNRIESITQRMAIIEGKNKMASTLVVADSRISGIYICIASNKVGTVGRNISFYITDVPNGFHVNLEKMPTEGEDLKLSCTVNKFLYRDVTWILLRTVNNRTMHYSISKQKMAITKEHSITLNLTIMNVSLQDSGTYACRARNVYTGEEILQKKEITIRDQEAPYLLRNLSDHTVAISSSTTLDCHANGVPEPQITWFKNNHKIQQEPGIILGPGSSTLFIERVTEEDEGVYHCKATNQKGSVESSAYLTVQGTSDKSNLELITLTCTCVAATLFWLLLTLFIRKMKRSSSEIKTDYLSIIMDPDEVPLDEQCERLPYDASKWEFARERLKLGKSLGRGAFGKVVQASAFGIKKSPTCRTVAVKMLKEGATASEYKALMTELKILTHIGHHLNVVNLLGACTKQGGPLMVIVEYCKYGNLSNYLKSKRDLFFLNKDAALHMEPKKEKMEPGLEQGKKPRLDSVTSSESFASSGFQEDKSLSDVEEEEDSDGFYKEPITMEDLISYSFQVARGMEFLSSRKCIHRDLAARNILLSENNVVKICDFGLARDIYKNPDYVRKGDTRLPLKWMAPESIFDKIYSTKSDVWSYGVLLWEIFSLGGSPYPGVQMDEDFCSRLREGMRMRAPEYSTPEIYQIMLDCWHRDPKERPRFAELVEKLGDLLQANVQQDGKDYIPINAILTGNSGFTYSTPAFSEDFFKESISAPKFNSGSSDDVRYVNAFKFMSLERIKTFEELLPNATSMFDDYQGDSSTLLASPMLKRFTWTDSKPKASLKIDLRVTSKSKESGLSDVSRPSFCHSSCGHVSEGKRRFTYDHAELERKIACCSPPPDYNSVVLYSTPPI
VEGFR2 autophosphorylation (pVEGFR2) in HUVEC cells, sequence (P35968 20-1356): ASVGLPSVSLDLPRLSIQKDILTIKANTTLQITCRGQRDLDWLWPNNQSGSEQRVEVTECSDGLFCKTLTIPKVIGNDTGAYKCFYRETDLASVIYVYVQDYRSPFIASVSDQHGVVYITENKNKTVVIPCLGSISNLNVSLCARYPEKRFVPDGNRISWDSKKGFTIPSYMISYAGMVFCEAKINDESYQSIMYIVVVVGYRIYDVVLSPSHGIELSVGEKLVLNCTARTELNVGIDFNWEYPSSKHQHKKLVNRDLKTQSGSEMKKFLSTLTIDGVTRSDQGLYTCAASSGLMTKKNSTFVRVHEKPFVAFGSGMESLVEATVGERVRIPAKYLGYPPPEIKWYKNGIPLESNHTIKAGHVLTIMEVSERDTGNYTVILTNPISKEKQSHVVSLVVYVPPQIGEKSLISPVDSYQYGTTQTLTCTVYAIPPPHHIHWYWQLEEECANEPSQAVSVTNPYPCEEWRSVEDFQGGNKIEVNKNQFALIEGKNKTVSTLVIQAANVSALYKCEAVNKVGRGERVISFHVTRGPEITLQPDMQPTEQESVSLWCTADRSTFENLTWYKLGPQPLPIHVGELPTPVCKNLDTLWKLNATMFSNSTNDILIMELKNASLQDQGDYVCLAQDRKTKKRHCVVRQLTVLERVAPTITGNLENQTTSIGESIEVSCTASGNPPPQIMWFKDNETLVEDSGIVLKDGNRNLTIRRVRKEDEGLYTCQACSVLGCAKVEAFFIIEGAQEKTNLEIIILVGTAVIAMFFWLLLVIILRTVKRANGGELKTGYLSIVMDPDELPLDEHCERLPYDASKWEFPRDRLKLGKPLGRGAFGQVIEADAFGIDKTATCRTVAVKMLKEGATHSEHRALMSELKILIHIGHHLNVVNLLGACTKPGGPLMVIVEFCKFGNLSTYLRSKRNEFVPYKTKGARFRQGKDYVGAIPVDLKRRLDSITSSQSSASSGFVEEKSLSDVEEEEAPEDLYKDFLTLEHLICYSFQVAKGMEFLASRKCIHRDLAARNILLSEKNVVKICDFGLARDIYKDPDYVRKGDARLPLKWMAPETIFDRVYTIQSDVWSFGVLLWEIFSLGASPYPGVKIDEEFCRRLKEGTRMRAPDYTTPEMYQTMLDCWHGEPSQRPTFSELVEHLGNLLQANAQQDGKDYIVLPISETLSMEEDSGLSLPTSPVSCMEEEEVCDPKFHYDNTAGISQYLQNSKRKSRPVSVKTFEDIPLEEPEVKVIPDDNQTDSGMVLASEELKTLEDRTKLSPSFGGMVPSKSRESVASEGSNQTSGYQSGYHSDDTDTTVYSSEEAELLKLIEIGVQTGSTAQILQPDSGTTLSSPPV
KDR (VEGFR2), sequence (P35968 790-1356): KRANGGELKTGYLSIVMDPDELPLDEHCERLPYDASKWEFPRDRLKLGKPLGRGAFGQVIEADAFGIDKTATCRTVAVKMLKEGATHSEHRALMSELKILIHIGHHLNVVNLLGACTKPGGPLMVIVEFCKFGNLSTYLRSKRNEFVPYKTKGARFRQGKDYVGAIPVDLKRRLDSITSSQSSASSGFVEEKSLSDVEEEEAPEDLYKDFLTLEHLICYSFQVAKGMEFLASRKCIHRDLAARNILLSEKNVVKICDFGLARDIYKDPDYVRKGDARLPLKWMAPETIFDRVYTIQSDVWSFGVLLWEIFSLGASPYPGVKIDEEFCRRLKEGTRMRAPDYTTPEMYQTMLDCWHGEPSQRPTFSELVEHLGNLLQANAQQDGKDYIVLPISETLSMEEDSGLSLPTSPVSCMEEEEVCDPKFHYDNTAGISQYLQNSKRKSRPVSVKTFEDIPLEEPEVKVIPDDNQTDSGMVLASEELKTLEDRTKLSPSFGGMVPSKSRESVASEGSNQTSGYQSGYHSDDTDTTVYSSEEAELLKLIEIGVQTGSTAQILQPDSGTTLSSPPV

drug concentration in retina [1]	drug concentration in retina ([1]; listed as axitinib)	IC50 (KDR (VEGFR2))	IC50 (EGFR)	IC50 (FLT1 (VEGFR1))	IC50 (FLT4 (VEGFR3))	IC50 [3]	fraction unbound at 2 h, 2 μM (melanin)	solubility at 8 h [4]	Compound	solubility [2]	solubility [5]
below the lower limit of quantitation	below BLOQ	–	–	–	–	–	–	–	CNC(=O)c1ccccc1Sc1ccc2c(/C=C/c3ccccn3)n[nH]c2c1 [Axitinib]	< 2 micrograms/milliliter	–
–	–	≤ 1 nM	6000 to 60000 nM	≤ 1 nM	≤ 1 nM	≤ 1 nM	0.01 to 0.05	–	CNC(=O)c1ccccc1Sc1ccc2c(/C=C/c3ccc(OCCN4CCOCC4)cn3)n[nH]c2c1 [Compound I-3, N-methyl-2-({3-[(E)-2-{5-[2-(morpholin-4-yl)ethoxy]pyridin-2-yl}vinyl]-1H-indazol-6-yl}thio)benzamide]	–	–
–	–	1 to 10 nM	6000 to 60000 nM	≤ 1 nM	1 to 10 nM	1 to 5 nM	0.01 to 0.05	–	CNC(=O)c1ccccc1Sc1ccc2c(/C=C/c3ccc(OCCN4CCCC4)cn3)n[nH]c2c1 [Compound I-6, N-methyl-2-({3-[(E)-2-{5-[2-(pyrrolidin-1-yl)ethoxy]pyridin-2-yl}vinyl]-1H-indazol-6-yl}thio)benzamide]	–	–
–	–	1 to 10 nM	6000 to 60000 nM	1 to 10 nM	1 to 10 nM	≤ 1 nM	0.01 to 0.05	–	CNC(=O)c1ccccc1Sc1ccc2c(/C=C/c3cnn(CCN4CCCC4)c3)n[nH]c2c1 [Compound I-9, N-methyl-2-({3-[(E)-2-{1-[2-(pyrrolidin-1-yl)ethyl]-1H-pyrazole-4-yl}vinyl]-1H-indazol-6-yl}thio)benzamide]	–	–
–	–	1 to 10 nM	6000 to 60000 nM	1 to 10 nM	1 to 10 nM	–	0.01 to 0.05	46.8 µg/mL (≈ 96.4 µM)	CNC(=O)c1ccccc1Sc1ccc2c(/C=C/c3ccc(OCC4CCCN4)cn3)n[nH]c2c1 (stereo not drawn) [Compound I-14, N-methyl-2-({3-[(E)-2-{5-[(pyrrolidin-2-yl)methoxy]pyridin-2-yl}vinyl]-1H-indazol-6-yl}thio)benzamide]	–	–
–	–	10 to 100 nM	6000 to 60000 nM	10 to 100 nM	10 to 100 nM	1 to 5 nM	0.01 to 0.05	–	CNC(=O)c1ccccc1Sc1ccc2c(/C=C/c3cc(OCCN4CCCC4)ccn3)n[nH]c2c1 [Compound I-20, N-methyl-2-({3-[(E)-2-{4-[2-(pyrrolidin-1-yl)ethoxy]pyridin-2-yl}vinyl]-1H-indazol-6-yl}thio)benzamide]	–	–
–	–	1 to 10 nM	6000 to 60000 nM	1 to 10 nM	1 to 10 nM	≤ 1 nM	> 0.05	–	CNC(=O)c1cc(F)ccc1Sc1ccc2c(/C=C/c3ccc(OCCN4CCCC4)cn3)n[nH]c2c1 [Compound I-34, 5-fluoro-N-methyl-2-({3-[(E)-2-{5-[2-(pyrrolidin-1-yl)ethoxy]pyridin-2-yl}vinyl]-1H-indazol-6-yl}thio)benzamide]	–	–
–	–	≤ 1 nM	6000 to 60000 nM	≤ 1 nM	1 to 10 nM	≤ 1 nM	0.01 to 0.05	–	CN(C)Cc1ccc(/C=C/c2n[nH]c3cc(Sc4ccccc4C(=O)NC4CC4)ccc23)nc1 [Compound I-40, N-cyclopropyl-2-({3-[(E)-2-{5-[(dimethylamino)methyl]pyridin-2-yl}vinyl]-1H-indazol-6-yl}thio)benzamide]	–	–
–	–	1 to 10 nM	6000 to 60000 nM	1 to 10 nM	1 to 10 nM	≤ 1 nM	0.01 to 0.05	–	CCNC(=O)c1cc(F)ccc1Sc1ccc2c(/C=C/c3ccc(CN4CCCC4)cn3)n[nH]c2c1 [Compound I-97, N-ethyl-5-fluoro-2-({3-[(E)-2-{5-[(pyrrolidin-1-yl)methyl]pyridin-2-yl}vinyl]-1H-indazol-6-yl}thio)benzamide]	–	–
–	–	1 to 10 nM	6000 to 60000 nM	–	–	–	> 0.05	1580 µg/mL (≈ 3130 µM)	CNC(=O)c1cc(F)ccc1Sc1ccc2c(/C=C/c3cnn(CCCN4CCCC4)c3)n[nH]c2c1 [Compound I-106]	–	–

Compound	drug concentration in retina [1]	drug concentration in retina ([1]; listed as axitinib)	IC50 (KDR (VEGFR2))	IC50 (EGFR)	IC50 (FLT1 (VEGFR1))	IC50 (FLT4 (VEGFR3))	IC50 [3]	fraction unbound at 2 h, 2 μM (melanin)	solubility at 8 h [4]	solubility [2]	solubility [5]
CNC(=O)c1ccccc1Sc1ccc2c(/C=C/c3ccccn3)ncn2c1 [Compound I-26, N-methyl-2-({1-[(E)-2-(pyridin-2-yl)vinyl]imidazo[1,5-a]pyridin-6-yl}thio)benzamide]	–	–	> 100 nM	> 60000 nM	> 100 nM	> 100 nM	–	–	–	–	142.0 µg/mL (≈ 367 µM)
